The values that follow come from patent US10457654B2 (GENENTECH, INC., priority 2017, dated 2019).

Where a name gives a salt, the structure may show the parent alone. Read-outs that look alike come from different tables or passages of the source.

For the test, the target named is hNav1.7 (Homo sapiens (Human), UniProt Q15858). As to the kind of experiment: Tritiated compound binding to membranes from cells expressing hNav1.7 and the β1 subunit, competitive binding (LBA, Ex. 243A). The following applies: 100 pM [3H]compound, 18 h, room temperature. Here is the method:
Tritiated Compound Binding to Membranes Isolated from Cells that Heterologously Express hNav1.7 and the β1 Subunit
Preparation of membranes containing recombinantly expressed sodium channels: Frozen recombinant cell pellets were thawed on ice and diluted to 4 times the cell pellet weight with ice cold 50 mM Tris HCl, pH 7.4 buffer. The cell suspensions were homogenized on ice using a motorized glass dounce homogeniser. Homogenates were further diluted 8.4 times with ice cold 50 mM Tris HCl, pH 7.4 buffer and then centrifuged at 200×g at 4° C. for 15 min. The supernatants were collected and centrifuged at 10000×g at 4° C. for 50 min. […] The homogenized membranes were then processed through a syringe equipped with a 26 gauge needle. Protein concentrations were determined by Bradford Assay and the membranes were stored at −80° C.
Radioligand Binding Studies: Saturation experiments. A competitive NaV1.7 inhibitor having a methyl group was tritiated. Three tritiums were incorporated in place of methyl hydrogens to generate [^3H]compound. Binding of this radioligand was performed in 5 mL borosilicate glass test tubes at room temperature. […] Non-specific binding was determined in the presence of 1 μM unlabeled compound. After 18h, the reactants were filtered through GF/C glass fiber filters presoaked in 0.5% w/v polyethylene imine. […] [^3H]compound bound to filters was quantified by liquid scintillation counting.
Competitive binding experiments: Binding reactions were performed in 96-well polypropylene plates at room temperature for 18h. In 360 μL, membranes were incubated with 100 pM [^3H]compound and increasing concentrations of Test Compound. Non-specific binding was defined in the presence of 1 μM unlabeled compound. Reactions were transferred and filtered through 96-well glass fiber/C filter plates presoaked with 0.5% polyethylene imine. The filtered reactions were washed 5 times with 200 μL ice cold buffer containing 0.25% BSA. Bound radioactivity was determined by liquid scintillation counting.
Data Analysis: For saturation experiments, non-specific binding was subtracted from total binding to provide specific binding and these values were recalculated in terms of pmol ligand bound per mg protein. Saturation curves were constructed and dissociation constants were calculated using the single site ligand binding model: Beq=(Bmax*X)/(X+Kd), where Beq is the amount of ligand bound at equilibrium, Bmax is the maximum receptor density, Kd is the dissociation constant for the ligand, and X is the free ligand concentration. For competition studies percent inhibition was determined and IC50 values were calculated using a 4 parameter logistic model (% inhibition=(A+((B−A)/(1+((x/C)^D)))) using XLfit, where A and B are the maximal and minimum inhibition respectively, C is the IC50 concentration and D is the (Hill) slope.

Setting [1] is: read-out: Nav1.7 LBA (Ex. 243A) IC50.
The mark [2] stands for this setting: read-out: Nav1.7 (LBA) (Ex. 243A).

hNav1.7, sequence (Q15858 whole entry, looked up): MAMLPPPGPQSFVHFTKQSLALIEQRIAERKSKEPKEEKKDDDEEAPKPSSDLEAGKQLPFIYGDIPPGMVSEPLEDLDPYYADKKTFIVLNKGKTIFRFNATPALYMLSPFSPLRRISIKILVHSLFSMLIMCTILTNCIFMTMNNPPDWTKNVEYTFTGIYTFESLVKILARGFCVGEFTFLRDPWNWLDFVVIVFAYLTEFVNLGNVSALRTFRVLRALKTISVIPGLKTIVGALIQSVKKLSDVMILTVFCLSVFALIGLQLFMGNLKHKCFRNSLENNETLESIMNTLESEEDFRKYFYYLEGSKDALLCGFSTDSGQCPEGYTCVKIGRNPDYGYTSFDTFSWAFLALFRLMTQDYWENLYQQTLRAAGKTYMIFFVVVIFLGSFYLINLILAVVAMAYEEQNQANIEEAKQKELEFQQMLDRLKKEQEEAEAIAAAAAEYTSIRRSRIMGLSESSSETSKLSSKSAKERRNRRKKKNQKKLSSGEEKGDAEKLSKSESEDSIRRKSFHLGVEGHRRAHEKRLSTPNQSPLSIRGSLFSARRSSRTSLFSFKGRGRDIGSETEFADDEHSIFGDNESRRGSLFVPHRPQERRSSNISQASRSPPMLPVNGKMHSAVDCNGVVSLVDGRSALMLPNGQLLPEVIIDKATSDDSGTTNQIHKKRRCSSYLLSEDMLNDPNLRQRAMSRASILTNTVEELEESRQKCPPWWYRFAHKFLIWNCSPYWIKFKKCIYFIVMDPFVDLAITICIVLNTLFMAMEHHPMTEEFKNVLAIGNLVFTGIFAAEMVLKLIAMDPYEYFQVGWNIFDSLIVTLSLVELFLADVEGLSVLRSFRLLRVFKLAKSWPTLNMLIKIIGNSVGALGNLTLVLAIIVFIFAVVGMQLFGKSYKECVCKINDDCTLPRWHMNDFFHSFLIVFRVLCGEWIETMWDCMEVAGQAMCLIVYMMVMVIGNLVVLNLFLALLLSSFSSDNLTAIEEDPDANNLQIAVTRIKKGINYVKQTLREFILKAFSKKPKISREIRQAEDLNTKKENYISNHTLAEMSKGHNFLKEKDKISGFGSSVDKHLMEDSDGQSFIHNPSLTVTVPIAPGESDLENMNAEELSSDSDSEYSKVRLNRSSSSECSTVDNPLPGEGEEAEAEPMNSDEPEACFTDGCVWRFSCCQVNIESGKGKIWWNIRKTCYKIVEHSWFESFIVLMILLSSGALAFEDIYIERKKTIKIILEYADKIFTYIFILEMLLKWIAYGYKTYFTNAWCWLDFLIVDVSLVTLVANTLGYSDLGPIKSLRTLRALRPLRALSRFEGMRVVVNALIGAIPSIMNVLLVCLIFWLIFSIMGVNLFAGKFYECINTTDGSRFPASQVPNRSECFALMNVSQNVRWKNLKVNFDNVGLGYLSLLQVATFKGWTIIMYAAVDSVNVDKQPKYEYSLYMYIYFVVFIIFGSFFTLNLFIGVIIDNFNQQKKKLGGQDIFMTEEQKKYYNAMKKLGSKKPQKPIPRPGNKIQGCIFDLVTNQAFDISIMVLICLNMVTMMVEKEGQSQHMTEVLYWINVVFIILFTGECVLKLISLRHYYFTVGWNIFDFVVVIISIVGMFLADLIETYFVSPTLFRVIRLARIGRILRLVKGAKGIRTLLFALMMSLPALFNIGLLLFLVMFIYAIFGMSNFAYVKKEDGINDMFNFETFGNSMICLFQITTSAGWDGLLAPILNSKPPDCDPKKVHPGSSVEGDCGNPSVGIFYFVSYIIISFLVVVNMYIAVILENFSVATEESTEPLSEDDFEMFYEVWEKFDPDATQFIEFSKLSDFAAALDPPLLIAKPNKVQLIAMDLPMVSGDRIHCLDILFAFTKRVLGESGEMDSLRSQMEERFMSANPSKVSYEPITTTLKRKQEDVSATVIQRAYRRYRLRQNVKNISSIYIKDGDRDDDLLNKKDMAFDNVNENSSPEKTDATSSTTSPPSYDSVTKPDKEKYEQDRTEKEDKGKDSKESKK
hNav1.7, sequence (Q07699 whole entry partner, looked up): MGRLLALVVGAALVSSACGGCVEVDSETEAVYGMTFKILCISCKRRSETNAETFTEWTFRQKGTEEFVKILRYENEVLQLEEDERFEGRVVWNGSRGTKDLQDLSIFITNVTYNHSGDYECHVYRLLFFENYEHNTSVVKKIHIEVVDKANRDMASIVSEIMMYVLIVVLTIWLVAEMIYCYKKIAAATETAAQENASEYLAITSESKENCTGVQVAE

With `CN(C)[C@@H]1CC[C@@H](C(F)(F)F)C[C@H]1Nc1cc(F)c(S(=O)(=O)Nc2nccs2)cc1Cl` [Example 83, 5-chloro-4-(((1R,2R,5R)-2-(dimethylamino)-5-(trifluoromethyl)cyclohexyl)amino)-2-fluoro-N-(thiazol-2-yl)benzenesulfonamide], the IC50 under setting [1] is 379 nM.
Take `CN(C)[C@@H]1C[C@H](C(F)(F)F)CC[C@H]1Nc1cc(F)c(S(=O)(=O)Nc2nccs2)cc1Cl` [Example 36, 5-chloro-4-(((1R,2R,4R)-2-(dimethylamino)-4-(trifluoromethyl)cyclohexyl)amino)-2-fluoro-N-(thiazol-2-yl)benzenesulfonamide]: the IC50 under setting [1] was 93.6 nM.
Consider `Cc1csc(NS(=O)(=O)c2cc(Cl)c(N[C@H]3CCCC[C@@H]3N3CCCC3)cc2F)n1` [Example 92, 5-chloro-2-fluoro-N-(4-methylthiazol-2-yl)-4-(((1S,2S)-2-(pyrrolidin-1-yl)cyclohexyl)amino)benzenesulfonamide formate], for which the IC50 under setting [1] turned out to be 118 nM.
`CCN(Cc1ccccc1)[C@H]1CCCC[C@@H]1Nc1cc(F)c(S(=O)(=O)Nc2nccs2)cc1Cl` [Example 6, 4-(((1S,2S)-2-(benzyl(ethyl)amino)cyclohexyl)amino)-5-chloro-2-fluoro-N-(thiazol-2-yl)benzenesulfonamide]: the IC50 under setting [2] was found to be 994 nM.
With `CN(C1CNC1)[C@H]1CCCC[C@@H]1Nc1cc(F)c(S(=O)(=O)Nc2cccc(F)n2)cc1Cl` [Example 55, 4-(((1S,2S)-2-(azetidin-3-yl(methyl)amino)cyclohexyl)amino)-5-chloro-2-fluoro-N-(6-fluoropyridin-2-yl)benzenesulfonamide], under setting [1], the IC50 worked out at 7.38 nM.
Consider `CN(C)[C@H]1CCCC[C@@H]1Nc1cc(F)c(S(=O)(=O)Nc2nccs2)cc1Br` [Example 14, 5-bromo-4-[[(1S,2S)-2-(dimethylamino)cyclohexyl]amino]-2-fluoro-N-thiazol-2-yl-benzenesulfonamide], for which the IC50 under setting [2] was found to be 21.9 nM.
As to `O=S(=O)(Nc1nccs1)c1cc(Cl)c(N[C@H]2CCCC[C@@H]2N2CC[C@H](O)C2)cc1F` [Example 67, 5-chloro-2-fluoro-4-(((1S,2S)-2-((S)-3-hydroxypyrrolidin-1-yl)cyclohexyl)amino)-N-(thiazol-2-yl)benzenesulfonamide], the IC50 under setting [1] was 17.3 nM.
For the molecule `CCN[C@H]1CCCC[C@@H]1Oc1cc(F)c(S(=O)(=O)Nc2nccs2)cc1Cl` [Example 42, 5-chloro-4-(((1S,2S)-2-(ethylamino)cyclohexyl)oxy)-2-fluoro-N-(thiazol-2-yl)benzenesulfonamide], the IC50 under setting [1] is 27.2 nM.
Take `CN(C)[C@@H]1CCC[C@H]1Oc1cc(F)c(S(=O)(=O)Nc2nccs2)cc1Cl` [Example 10, 5-chloro-4-(((1R,2R)-2-(dimethylamino)cyclopentyl)oxy)-2-fluoro-N-(thiazol-2-yl)benzenesulfonamide]: the IC50 under setting [2] is 553 nM.
For `CN[C@H]1CCCC[C@@H]1Nc1cc(F)c(S(=O)(=O)Nc2nccs2)cc1C1CC1` [Example 51, 5-cyclopropyl-2-fluoro-4-(((1S,2S)-2-(methylamino)cyclohexyl)amino)-N-(thiazol-2-yl)benzenesulfonamide formate], the IC50 under setting [1] was 75.6 nM.
Turning to `O=S(=O)(Nc1nccs1)c1cc(Cl)c(N[C@H]2CCCC[C@@H]2N2CCC2)cc1F` [Example 21, 4-(((1S,2S)-2-(azetidin-1-yl)cyclohexyl)amino)-5-chloro-2-fluoro-N-(thiazol-2-yl)benzenesulfonamide], the IC50 under setting [2] is 214 nM.
For `CN(C1CC1)[C@H]1CCCC[C@@H]1Nc1cc(F)c(S(=O)(=O)Nc2nccs2)cc1Cl` [Example 19, 5-chloro-4-[[(1S,2S)-2-[cyclopropyl(methyl)amino]cyclohexyl]amino]-2-fluoro-N-thiazol-2-yl-benzenesulfonamide], the IC50 under setting [2] was 45.1 nM.
With `O=S(=O)(Nc1nccs1)c1cc(Cl)c(N[C@H]2CCCC[C@@H]2N2CCC(F)C2)cc1F` (stereo partly drawn) [Example 104, 5-chloro-2-fluoro-4-(((1S,2S)-2-(3-fluoropyrrolidin-1-yl)cyclohexyl)amino)-N-(thiazol-2-yl)benzenesulfonamide], the IC50 under setting [1] came out at 35.6 nM.
On to `CN(CC(N)=O)[C@H]1CCCC[C@@H]1Nc1cc(F)c(S(=O)(=O)Nc2nccs2)cc1Cl` [Example 79, 2-(((1S,2S)-2-((2-chloro-5-fluoro-4-(N-(thiazol-2-yl)sulfamoyl)phenyl)amino)cyclohexyl)(methyl)amino)acetamide formate], for which, under setting [1], the IC50 turned out to be 9.28 nM.
With `CN(C)[C@H]1CCCC[C@@H]1Nc1cc(F)c(S(=O)(=O)Nc2ncns2)cc1F` [Example 13, 4-(((1S,2S)-2-(dimethylamino)cyclohexyl)amino)-2,5-difluoro-N-(1,2,4-thiadiazol-5-yl)benzenesulfonamide formate], the IC50 under setting [2] came to 357 nM.
With `CN(C)[C@H]1CCC[C@@H]1Oc1cc(F)c(S(=O)(=O)Nc2nccs2)cc1Cl` [Example 9, 5-chloro-4-(((1S,2S)-2-(dimethylamino)cyclopentyl)oxy)-2-fluoro-N-(thiazol-2-yl)benzenesulfonamide], under setting [2], the IC50 is 3000 nM.
`CN(C)[C@@H]1CC[C@@H](c2cccc(C(F)(F)F)c2)C[C@H]1Nc1cc(F)c(S(=O)(=O)Nc2nccs2)cc1Cl` [Example 93, 5-chloro-4-(((1R,2R,5R)-2-(dimethylamino)-5-(3-(trifluoromethyl)phenyl)cyclohexyl)amino)-2-fluoro-N-(thiazol-2-yl)benzenesulfonamide]: the IC50 under setting [1] amounted to 64.7 nM.
Turning to `CN[C@H]1CCCC[C@@H]1N(C)c1cc(F)c(S(=O)(=O)Nc2nccs2)cc1Cl` [Example 20, 5-chloro-2-fluoro-4-(methyl((1S,2S)-2-(methylamino)cyclohexyl)amino)-N-(thiazol-2-yl)benzenesulfonamide], the IC50 under setting [2] came out at 211 nM.
As to `CN(C)[C@H]1CCCC[C@@H]1Oc1cc(F)c(S(=O)(=O)Nc2nccs2)cc1Cl` [Example 7, 5-chloro-4-(((1S,2S)-2-(dimethylamino)cyclohexyl)oxy)-2-fluoro-N-(thiazol-2-yl)benzenesulfonamide], the IC50 under setting [2] is 89.9 nM.
With `CCCN[C@H]1CCCC[C@@H]1Nc1cc(F)c(S(=O)(=O)Nc2nccs2)cc1Cl` [Example 34, 5-chloro-2-fluoro-4-(((1 S,2S)-2-(propylamino)cyclohexyl)amino)-N-(thiazol-2-yl)benzenesulfonamide], the IC50 under setting [1] was 35.2 nM.
`CN(C)[C@H]1CCC[C@@H]1Nc1cc(F)c(S(=O)(=O)Nc2nccs2)cc1Cl` [Example 12, 5-chloro-4-(((1S,2S)-2-(dimethylamino)cyclopentyl)amino)-2-fluoro-N-(thiazol-2-yl)benzenesulfonamide]: the IC50 under setting [2] was found to be 165 nM.
As to `CN(C)[C@@H]1CC[C@H](C(F)(F)F)C[C@H]1Nc1cc(F)c(S(=O)(=O)Nc2nccs2)cc1Cl` [Example 84, 5-chloro-4-(((1R,2R,5S)-2-(dimethylamino)-5-(trifluoromethyl)cyclohexyl)amino)-2-fluoro-N-(thiazol-2-yl)benzenesulfonamide], the IC50 under setting [1] was 3000 nM.
As to `N[C@H]1CCCC[C@@H]1Nc1cc(F)c(S(=O)(=O)Nc2nccs2)cc1Cl` [Example 1, 4-(((1S,2S)-2-aminocyclohexyl)amino)-5-chloro-2-fluoro-N-(thiazol-2-yl)benzenesulfonamide], the IC50 under setting [2] turned out to be 197 nM.
